Reference: patent US20120277269A1 (priority 2008, published 2012)
Like-named read-outs stand apart in the source and are kept apart here.

Experiments:
AF patients [1] = conditions: SPORTIF III; Warfarin vs. Ximelagatran; mean follow-up 1.45 years; cited from earlier work
AF patients [2] = conditions: BAFTA; mean follow-up 2.7 years; cited from earlier work
AF patients [3] = conditions: ACTIVE W; mean follow-up 1.3 years; cited from earlier work
[4] = tested on: patients with atrial fibrillation at risk of stroke
Source text: Median follow-up was 2.0 years and the primary outcome was stroke or systemic embolism.
Patients were recruited from 951 clinical centers in 44 countries. In brief, patients were eligible if they had atrial fibrillation documented on electrocardiogram at screening or within 6 months; and at least one of the following: prior stroke or transient ischemic attack; left ventricular ejection fraction less than 40%; New York Heart Association heart failure symptoms of Class 2 or greater within 6 months; age at least 75 years; or age at least 65 years with diabetes mellitus, hypertension or coronary artery disease.
The time in therapeutic range was calculated by the method of Rosendaal (Rosendaal F R, et al., A method to determine the optimal intensity of oral anticoagulant therapy, Thromb Haemost, 1993, 69:236-239), excluding INRs from the first week and after discontinuations. […] Concomitant use of aspirin (less than 100 mg/day) or other antiplatelet agents was allowed.
Liver function testing was performed monthly during the first year of follow-up.
The primary study outcome was stroke or systemic embolism. The primary safety outcome was major hemorrhage. Secondary outcomes were stroke, systemic embolism and death. Other outcomes were myocardial infarction, pulmonary embolism, transient ischemic attacks, and hospitalizations. The primary net benefit-risk outcome was the composite of stroke, systemic embolism, pulmonary embolism, myocardial infarction, death or major hemorrhage. Stroke was defined as sudden onset of focal neurological deficit consistent with the territory of a major cerebral artery and categorized as ischemic, hemorrhagic or unspecified. Hemorrhagic transformation of ischemic stroke was not considered as hemorrhagic stroke. Intracranial hemorrhage included hemorrhagic stroke and sub-dural or sub-arachnoid hemorrhage. Systemic embolism was an acute vascular occlusion of an extremity or organ documented by imaging, surgery or autopsy. Major bleeding was defined as a reduction in hemoglobin level of at least […] or transfusion of at least 2 units of blood or symptomatic bleeding in a critical area or organ. Life-threatening bleeding was a subset of major bleeding that included fatal bleeding, symptomatic intracranial bleeding, bleeding with hemoglobin decrease of more than […] or requiring transfusion of more than 4 units of blood or requiring inotropic agents or necessitating surgery. All other bleeding was considered minor.
All primary and secondary outcome events were blindly and doubly adjudicated. An international team of adjudicators reviewed documents in local languages after blinding; or documents were translated by a independent group and blinded centrally. All transient ischemic attacks were reviewed to ensure that strokes had not been missed. To detect possible unreported events, symptom questionnaires were regularly administered to patients, and adverse events and hospitalization reports were scrutinized for unreported primary or secondary outcomes.
If maximum of the two p-values was greater than 0.025, the minimum of the two p-values must be less than 0.0125, one-sided, to claim statistical significance. All analyses were based on intention-to-treat.

AF patients [5] = conditions: SPORTIF V; Warfarin vs. Ximelagatran; mean follow-up 1.66 years; cited from earlier work

CC(=O)CC(c1ccccc1)c1c(O)c2ccccc2oc1=O (racemic) [Warfarin, 3-(α-acetonylbenzyl)-4-hydroxycoumarin]
Myocardial Infarction (AF patients [1]): 0.6% (warfarin) | Myocardial Infarction (AF patients [2]): 1.1% (warfarin) | Myocardial Infarction (AF patients [3]): 0.6% (warfarin) | ALT or AST > 3xULN with concurrent bilirubin > 2xULN ([4]; Warfarin): (0.4) % | Adverse Event: Arthralgia ([4]; Warfarin): (5.5) % | Adverse Event: Atrial fibrillation ([4]; Warfarin): (5.4) % | Adverse Event: Back pain ([4]; Warfarin): (5.5) % | Adverse Event: Chest pain ([4]; Warfarin): (5.7) % | Adverse Event: Cough ([4]; Warfarin): (5.8) % | Adverse Event: Diarrhea ([4]; Warfarin): (5.5) % | Adverse Event: Dizziness ([4]; Warfarin): (9.3) % | Adverse Event: Dyspepsia ([4]; Warfarin): (1.4) % | Adverse Event: Dyspnoea ([4]; Warfarin): (9.2) % | Adverse Event: Fatigue ([4]; Warfarin): (5.9) % | Adverse Event: Nasopharyngitis ([4]; Warfarin): (5.5) % | Adverse Event: Peripheral edema ([4]; Warfarin): (7.6) % | Adverse Event: Upper respiratory tract infection ([4]; Warfarin): (5.0) % | Adverse Event: Urinary tract infection ([4]; Warfarin): (5.3) % | Life threatening major bleeding, Rate ([4]; Warfarin): 1.80 /100 Person Years | Liver Function Test Abnormalities: ALT or AST > 3xULN ([4]; Warfarin): (2.1) % | Pulmonary embolism, Rate ([4]; Warfarin): 0.09 /100 Person Years | Reason for discontinuation: Gastrointestinal bleeding ([4]; Warfarin): (0.9) % | Reason for discontinuation: Gastrointestinal disorders (including pain, vomiting and diarrhea) ([4]; Warfarin): (0.8) % | Reason for discontinuation: SAE ([4]; Warfarin): (1.6) % | hepatobiliary disorders (AE) ([4]; Warfarin): (2.2) % | hepatobiliary disorders (SAE) ([4]; Warfarin): (0.4) % | Rate of primary outcome, stroke or systemic embolism ([4]; warfarin, median follow-up 2.0 years): 1.70 % per year | Myocardial Infarction (AF patients [5]): 1.4% (warfarin)
